# Experimental data as given in ChEMBL document CHEMBL1201862, “PubChem BioAssay data set” (2004).
# Calls of active or inactive are those of the source.
# Legend:
# [1] = viability loss in Vero cells – cytotoxicity control for Vif-APOBEC3G degradation inhibitor project, dose response (AID 1117358); format: functional; conditions: Vero
# [2] = molecular target: Aryl hydrocarbon receptor (Homo sapiens, UniProt P35869); assay: Luminescence-based cell-based high throughput dose response assay for activators of the Aryl Hydrocarbon Receptor (AHR). [Related pubchem assays: 2796 (Primary screen (AHR activators in singlicate)), 2845 (Confirmation screen (AHR activators in triplicate)), 434939 (Counterscreen (PXR activators in triplicate)), 2804 (Summary (AHR activators))]; format: ADME
# Chain of Aryl hydrocarbon receptor (P35869 whole entry): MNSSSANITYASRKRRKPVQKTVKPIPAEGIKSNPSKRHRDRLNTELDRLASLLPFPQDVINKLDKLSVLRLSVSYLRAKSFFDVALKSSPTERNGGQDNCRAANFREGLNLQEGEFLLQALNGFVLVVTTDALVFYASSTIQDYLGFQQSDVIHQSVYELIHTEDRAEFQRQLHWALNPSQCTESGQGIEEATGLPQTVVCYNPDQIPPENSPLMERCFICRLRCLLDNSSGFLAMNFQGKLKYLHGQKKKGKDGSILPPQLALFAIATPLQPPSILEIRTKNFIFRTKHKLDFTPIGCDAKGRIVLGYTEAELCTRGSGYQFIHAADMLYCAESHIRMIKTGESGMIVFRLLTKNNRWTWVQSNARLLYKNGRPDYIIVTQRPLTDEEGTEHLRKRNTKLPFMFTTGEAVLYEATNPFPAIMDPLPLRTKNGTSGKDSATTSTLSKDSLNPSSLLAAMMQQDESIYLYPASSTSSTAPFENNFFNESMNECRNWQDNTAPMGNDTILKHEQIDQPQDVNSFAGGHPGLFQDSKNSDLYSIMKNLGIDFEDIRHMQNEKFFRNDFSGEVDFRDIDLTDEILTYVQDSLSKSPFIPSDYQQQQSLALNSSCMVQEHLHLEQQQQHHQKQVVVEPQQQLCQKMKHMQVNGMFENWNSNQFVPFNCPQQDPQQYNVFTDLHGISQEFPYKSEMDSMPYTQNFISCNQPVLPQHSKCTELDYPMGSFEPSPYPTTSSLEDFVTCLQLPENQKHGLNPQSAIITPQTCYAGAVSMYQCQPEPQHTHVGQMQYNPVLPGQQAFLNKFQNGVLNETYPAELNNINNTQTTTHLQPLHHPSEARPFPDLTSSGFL
# [3] = molecular target: NADPH oxidase 1 (Homo sapiens, UniProt Q9Y5S8); assay: Late-stage luminescence-based cell-based dose response assay to identify inhibitors of NADPH oxidase 1 (NOX1): Purchased analogs 2.; format: functional
# Chain of NADPH oxidase 1 (Q9Y5S8 whole entry): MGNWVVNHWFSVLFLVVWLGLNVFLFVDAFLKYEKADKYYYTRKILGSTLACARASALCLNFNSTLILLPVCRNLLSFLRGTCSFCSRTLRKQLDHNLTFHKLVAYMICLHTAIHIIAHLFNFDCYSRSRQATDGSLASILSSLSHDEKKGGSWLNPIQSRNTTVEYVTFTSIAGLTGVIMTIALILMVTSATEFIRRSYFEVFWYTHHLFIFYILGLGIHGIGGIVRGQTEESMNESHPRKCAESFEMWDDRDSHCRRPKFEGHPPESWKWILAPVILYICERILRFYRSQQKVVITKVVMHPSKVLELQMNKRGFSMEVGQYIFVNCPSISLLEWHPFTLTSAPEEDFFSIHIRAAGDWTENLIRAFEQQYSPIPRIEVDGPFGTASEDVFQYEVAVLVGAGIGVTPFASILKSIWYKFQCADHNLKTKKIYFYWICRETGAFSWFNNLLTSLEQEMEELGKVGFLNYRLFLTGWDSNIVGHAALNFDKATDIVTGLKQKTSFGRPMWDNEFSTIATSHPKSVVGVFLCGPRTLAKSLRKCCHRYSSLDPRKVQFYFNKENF
# [4] = molecular target: Induced myeloid leukemia cell differentiation protein Mcl-1 (Homo sapiens, UniProt Q07820); format: functional
# Chain of Induced myeloid leukemia cell differentiation protein Mcl-1 (Q07820 whole entry): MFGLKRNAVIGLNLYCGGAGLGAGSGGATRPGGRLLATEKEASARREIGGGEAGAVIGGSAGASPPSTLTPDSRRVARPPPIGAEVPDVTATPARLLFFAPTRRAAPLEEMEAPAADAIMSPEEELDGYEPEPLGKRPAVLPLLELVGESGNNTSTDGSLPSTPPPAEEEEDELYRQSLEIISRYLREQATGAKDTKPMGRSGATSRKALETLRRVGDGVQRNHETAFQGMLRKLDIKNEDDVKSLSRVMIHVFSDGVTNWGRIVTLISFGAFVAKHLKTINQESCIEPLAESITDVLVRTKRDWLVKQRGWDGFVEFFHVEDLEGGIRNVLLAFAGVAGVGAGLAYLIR
# [5] = molecular target: Mitochondrial peptide methionine sulfoxide reductase (Bos taurus, UniProt P54149); assay: Absorbance-based biochemical high throughput dose response assay for activators of Methionine sulfoxide reductase A (MsrA).; format: functional
# Chain of Mitochondrial peptide methionine sulfoxide reductase (P54149 whole entry): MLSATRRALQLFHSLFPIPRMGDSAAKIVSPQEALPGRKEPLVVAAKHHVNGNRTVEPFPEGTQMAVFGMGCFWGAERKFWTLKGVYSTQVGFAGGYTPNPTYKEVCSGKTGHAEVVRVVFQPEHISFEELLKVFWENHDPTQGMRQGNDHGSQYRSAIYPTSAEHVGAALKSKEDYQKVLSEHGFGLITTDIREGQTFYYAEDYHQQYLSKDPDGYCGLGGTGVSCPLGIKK
# [6] = tested on: INS1; assay: INS-1E survival protection against cytokine death – cell-based, luminescence, retest, dose response (AID 449756); format: functional; conditions: Rattus norvegicus, INS1;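 also: cell death triggered by IL-1 beta plus TNF-alpha plus IFN-gamma mixture; protective hits raise ATP signal compared with cytokine alone wells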
# [7] = molecular target: Serine/threonine-protein phosphatase (Homo sapiens, UniProt Q9BPW0); assay: inhibition of protein phosphatase 5 activity – biochemical, fluorescence, dose response (AID 2395)
# Chain of Serine/threonine-protein phosphatase (Q9BPW0 whole entry): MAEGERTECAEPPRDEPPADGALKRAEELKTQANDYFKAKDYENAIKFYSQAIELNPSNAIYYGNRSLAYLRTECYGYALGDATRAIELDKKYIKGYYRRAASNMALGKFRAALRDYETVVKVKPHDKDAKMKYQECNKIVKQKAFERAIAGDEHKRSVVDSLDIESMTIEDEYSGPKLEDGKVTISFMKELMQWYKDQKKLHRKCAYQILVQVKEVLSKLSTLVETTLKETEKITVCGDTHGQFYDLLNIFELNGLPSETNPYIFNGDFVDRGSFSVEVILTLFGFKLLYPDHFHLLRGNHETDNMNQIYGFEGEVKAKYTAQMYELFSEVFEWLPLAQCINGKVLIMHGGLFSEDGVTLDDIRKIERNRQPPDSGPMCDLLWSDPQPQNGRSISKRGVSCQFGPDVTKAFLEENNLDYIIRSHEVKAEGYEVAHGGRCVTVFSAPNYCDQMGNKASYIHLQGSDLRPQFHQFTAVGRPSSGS
# [8] = molecular target: Serine/threonine-protein phosphatase PP1-alpha catalytic subunit (Homo sapiens, UniProt P62136); assay: inhibition of protein phosphatase 1 activity – biochemical, fluorescence, dose response (AID 2394)
# Chain of Serine/threonine-protein phosphatase PP1-alpha catalytic subunit (P62136 whole entry): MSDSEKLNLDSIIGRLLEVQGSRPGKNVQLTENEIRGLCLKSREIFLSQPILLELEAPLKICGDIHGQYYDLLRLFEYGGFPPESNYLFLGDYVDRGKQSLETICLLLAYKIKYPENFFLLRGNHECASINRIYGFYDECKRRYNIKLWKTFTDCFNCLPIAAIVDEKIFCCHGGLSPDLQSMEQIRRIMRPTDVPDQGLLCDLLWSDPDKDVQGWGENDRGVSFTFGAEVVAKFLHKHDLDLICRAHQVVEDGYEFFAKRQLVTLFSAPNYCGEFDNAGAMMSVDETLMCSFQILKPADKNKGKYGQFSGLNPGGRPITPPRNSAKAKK
# [9] = molecular target: Melanocortin receptor 4 (Homo sapiens, UniProt P32245); format: functional, cell-based;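 also: Cell-based assay with luminescence read-out, confirmatory dose-response testing for agonist activity of biased ligands at MC4R; human U2OS cells with tagged receptor and beta-arrestin; potency of agonists that increase receptor coupling to beta-arrestin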
# Chain of Melanocortin receptor 4 (P32245 whole entry): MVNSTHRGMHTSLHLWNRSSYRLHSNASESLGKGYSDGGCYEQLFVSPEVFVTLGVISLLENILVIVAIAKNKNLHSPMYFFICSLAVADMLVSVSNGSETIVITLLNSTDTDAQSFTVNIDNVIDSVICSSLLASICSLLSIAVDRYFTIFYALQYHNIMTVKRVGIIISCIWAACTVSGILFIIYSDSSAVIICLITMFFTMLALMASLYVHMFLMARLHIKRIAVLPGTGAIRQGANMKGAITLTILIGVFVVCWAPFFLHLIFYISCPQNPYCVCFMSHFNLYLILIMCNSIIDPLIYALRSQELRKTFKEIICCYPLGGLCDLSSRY
# [10] = Potency on glucagon-like peptide 1 release, dose-response in NCI-H716 cell line, half maximal inhibitory concentration (AID 1117344); format: functional, cell-based
# [11] = molecular target: T1, DNA repair protein RAD52 homolog (Homo sapiens, UniProt P43351); format: functional, biochemical
# T1 sequence (P43351 whole entry): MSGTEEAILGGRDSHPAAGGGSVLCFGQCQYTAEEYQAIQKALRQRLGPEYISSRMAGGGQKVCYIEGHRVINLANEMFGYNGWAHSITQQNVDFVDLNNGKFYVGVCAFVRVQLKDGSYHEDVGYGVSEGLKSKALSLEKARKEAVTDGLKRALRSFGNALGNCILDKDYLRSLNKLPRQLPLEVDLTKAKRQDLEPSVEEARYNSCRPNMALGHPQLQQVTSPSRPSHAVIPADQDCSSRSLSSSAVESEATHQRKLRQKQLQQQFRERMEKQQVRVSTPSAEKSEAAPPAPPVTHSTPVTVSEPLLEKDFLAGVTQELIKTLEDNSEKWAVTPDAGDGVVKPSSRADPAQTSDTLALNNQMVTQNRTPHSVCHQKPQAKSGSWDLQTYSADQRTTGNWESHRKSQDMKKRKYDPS
# [12] = molecular target: T2, Ubiquitin-conjugating enzyme E2 N (Homo sapiens, UniProt P61088); format: functional;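 also: Dose-response confirmation in a TR-FRET assay detecting UBC13-driven polyubiquitin chain formation, inhibition measured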
# T2 sequence (P61088 whole entry): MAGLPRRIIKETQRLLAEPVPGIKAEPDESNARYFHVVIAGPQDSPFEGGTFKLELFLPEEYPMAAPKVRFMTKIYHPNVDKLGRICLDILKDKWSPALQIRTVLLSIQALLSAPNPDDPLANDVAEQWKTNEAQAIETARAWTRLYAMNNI
# [13] = glucagon-like peptide-1 release potency in STC-1, concentration-response, half-maximal inhibitory concentration in the STC-1 line (AID 1117345); format: functional, cell-based
# [14] = molecular target: T3, Apoptotic protease-activating factor 1 (Homo sapiens, UniProt O14727); format: functional
# T3 sequence (O14727 whole entry): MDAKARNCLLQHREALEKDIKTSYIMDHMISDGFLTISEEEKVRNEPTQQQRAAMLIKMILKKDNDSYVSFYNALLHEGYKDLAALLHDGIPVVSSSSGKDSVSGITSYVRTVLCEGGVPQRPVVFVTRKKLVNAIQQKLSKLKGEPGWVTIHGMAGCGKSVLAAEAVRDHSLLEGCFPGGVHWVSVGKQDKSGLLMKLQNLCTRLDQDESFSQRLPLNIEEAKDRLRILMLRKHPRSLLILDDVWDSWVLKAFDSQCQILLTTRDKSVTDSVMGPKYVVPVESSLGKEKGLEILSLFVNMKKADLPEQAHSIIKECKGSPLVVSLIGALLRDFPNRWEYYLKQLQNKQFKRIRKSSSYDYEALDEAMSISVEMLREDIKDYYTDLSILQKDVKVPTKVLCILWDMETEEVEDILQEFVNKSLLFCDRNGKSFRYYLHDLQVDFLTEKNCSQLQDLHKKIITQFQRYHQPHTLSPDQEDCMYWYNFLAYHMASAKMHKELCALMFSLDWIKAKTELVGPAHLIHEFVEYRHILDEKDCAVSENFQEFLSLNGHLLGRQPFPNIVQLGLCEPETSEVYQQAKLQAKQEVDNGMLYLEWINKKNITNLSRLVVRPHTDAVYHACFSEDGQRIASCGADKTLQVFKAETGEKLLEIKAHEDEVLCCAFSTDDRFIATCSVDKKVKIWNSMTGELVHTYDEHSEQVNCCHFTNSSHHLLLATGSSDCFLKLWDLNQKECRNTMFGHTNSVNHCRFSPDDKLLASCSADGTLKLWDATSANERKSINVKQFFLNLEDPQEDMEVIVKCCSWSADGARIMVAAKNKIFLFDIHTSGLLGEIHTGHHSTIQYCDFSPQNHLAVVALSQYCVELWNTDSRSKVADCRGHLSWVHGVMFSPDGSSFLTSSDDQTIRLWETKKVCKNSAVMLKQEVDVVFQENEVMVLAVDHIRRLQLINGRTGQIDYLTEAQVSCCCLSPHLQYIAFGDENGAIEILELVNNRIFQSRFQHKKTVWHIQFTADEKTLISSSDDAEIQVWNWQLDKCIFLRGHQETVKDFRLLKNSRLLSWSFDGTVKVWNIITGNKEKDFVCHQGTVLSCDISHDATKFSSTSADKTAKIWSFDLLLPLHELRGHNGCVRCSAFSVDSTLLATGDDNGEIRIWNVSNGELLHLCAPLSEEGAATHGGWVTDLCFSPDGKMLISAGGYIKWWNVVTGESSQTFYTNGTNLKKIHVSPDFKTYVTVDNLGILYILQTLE
# [15] = molecular target: Genome polyprotein (Hepatitis C virus, UniProt Q2Q167); assay: disruption of hepatitis C core self-association – biochemical, TR-FRET, dose response (AID 2159); design: species or system Hepacivirus hominis;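 also: blocks dimerization of HCV core protein measured by TR-FRET between tagged core106 pairs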
# Chain of Genome polyprotein (Q2Q167 whole entry): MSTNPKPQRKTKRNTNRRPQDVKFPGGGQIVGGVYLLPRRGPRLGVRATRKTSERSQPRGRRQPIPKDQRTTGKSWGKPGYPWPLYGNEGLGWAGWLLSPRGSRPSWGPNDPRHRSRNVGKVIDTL
# [16] = molecular target: Voltage-gated inwardly rectifying potassium channel KCNH2 (Homo sapiens, UniProt Q12809); assay: concentration-dependent hERG rescue from blockers – cell-based, thallium flux, dose response (AID 2121); format: ADME
# Chain of Voltage-gated inwardly rectifying potassium channel KCNH2 (Q12809 whole entry): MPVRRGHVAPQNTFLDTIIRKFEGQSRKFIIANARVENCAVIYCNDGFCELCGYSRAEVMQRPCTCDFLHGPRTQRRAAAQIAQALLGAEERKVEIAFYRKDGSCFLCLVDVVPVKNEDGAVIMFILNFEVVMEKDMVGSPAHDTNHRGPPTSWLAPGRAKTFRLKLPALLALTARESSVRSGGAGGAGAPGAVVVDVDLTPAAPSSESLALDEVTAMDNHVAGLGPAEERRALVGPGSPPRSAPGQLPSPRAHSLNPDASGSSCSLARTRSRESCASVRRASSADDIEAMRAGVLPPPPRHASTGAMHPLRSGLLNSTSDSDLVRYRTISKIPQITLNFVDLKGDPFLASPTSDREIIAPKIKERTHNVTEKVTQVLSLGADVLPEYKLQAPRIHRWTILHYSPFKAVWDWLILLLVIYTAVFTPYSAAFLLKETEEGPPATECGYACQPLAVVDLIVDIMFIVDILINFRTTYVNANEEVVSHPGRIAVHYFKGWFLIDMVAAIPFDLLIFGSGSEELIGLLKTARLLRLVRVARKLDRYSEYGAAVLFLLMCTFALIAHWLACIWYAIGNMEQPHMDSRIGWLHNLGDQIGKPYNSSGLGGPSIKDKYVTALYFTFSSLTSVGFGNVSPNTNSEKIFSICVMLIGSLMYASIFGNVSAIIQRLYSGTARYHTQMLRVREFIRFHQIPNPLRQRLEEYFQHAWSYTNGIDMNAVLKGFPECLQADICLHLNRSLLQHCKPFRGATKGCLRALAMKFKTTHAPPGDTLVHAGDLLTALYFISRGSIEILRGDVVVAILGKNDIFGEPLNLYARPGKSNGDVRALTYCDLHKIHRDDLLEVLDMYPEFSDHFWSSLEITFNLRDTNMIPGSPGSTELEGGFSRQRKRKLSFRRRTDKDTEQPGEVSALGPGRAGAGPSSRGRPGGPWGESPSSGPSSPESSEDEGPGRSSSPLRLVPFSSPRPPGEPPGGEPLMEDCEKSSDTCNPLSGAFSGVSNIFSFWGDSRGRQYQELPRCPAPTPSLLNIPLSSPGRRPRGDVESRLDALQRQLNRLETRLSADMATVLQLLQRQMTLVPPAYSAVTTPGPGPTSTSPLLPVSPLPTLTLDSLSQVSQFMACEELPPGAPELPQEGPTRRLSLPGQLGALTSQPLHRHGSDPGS
# [17] = molecular target: T4, Streptokinase A (Streptococcus pyogenes serotype M1, UniProt P10520); assay: viability-normalized secreted streptokinase activity reduction – plasminogen activation absorbance, OD405, dose response (AID 1914); format: functional, Streptococcus pyogenes M1 GAS;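 also: secreted streptokinase activity via plasminogen activation per viability signal from cell pellet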
# T4 sequence (P10520 whole entry): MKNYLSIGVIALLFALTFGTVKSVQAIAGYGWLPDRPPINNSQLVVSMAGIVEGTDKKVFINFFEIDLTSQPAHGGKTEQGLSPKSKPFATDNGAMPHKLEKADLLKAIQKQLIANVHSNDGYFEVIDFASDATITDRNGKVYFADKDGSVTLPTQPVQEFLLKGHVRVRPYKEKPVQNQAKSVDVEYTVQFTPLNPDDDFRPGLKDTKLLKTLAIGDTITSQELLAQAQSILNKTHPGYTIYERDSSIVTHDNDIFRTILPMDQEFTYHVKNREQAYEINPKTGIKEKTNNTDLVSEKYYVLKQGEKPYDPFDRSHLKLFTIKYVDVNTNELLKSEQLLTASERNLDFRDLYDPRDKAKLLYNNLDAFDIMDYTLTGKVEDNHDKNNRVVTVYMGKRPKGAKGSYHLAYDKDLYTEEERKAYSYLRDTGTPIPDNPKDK
# [18] = Trypanosoma cruzi growth suppression in host cells – NIH3T3 host cells, beta-gal luminescence, confirmation (AID 2044); format: functional, cell-based;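 also: intracellular parasites grown in NIH/3T3 mouse fibroblasts as host cells; luminescent beta-galactosidase reporter signal from transgenic T. cruzi replicating inside host cells; inhibitors lower the luminescence signal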
# [19] = tested on: Streptococcus sp. 'group A'; assay: Streptococcus pyogenes SK(-)GAS viability under kanamycin – luminescence, BacTiterGlo, confirmation, counter-screen for streptokinase expression inhibitor project, dose response (AID 1900); format: functional, organism-based
# [20] = tested on: Streptococcus; assay: GAS UMAA2166 growth inhibition – luminescence, BacTiterGlo, counter-screen for streptokinase expression inhibitor project, dose response (AID 1915); format: functional, organism-based;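 also: potency for reduction of bacterial viability or growth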
# [21] = NIH3T3 cell viability loss – ATP luminescence, mouse fibroblasts, counter-screen, dose response (AID 2010); format: functional, cell-based;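 also: cells exposed to compound for about 90 hours before reading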
structure (smiles),measurement,setting,value
Cc1ccc(S(=O)(=O)NCCCOC(=O)Nc2ccncc2)cc1,CC50,[1],> 40 µM (active)
COc1ccc(NC(=O)c2cccc3c(Br)cccc23)cc1,EC50,[2],0.965 µM (active)
COc1ccc(NS(=O)(=O)Cc2ccc(N)cc2)cc1,IC50,[3],> 17 µM (not active)
Cc1cc(C)c(S(=O)(=O)/N=C2/C=C(Sc3nc[nH]n3)C(=O)c3ccccc32)cc1C,IC50,[4],3.07 µM (active)
same,EC50,[5],> 104 µM (inactive)
same,AC50,[6],2.6 µM (active)
same,IC50,[7],4.19 µM (active)
same,IC50,[8],18.6 µM (not active)
CC(C)(C)CC(C)(C)c1ccc(OCCOCC[N+](C)(C)Cc2ccccc2)cc1 [BENZETHONIUM CHLORIDE],EC50,[9],> 89.2 µM (inactive)
same,IC50,[10],21.9 µM (inactive)
same,AC50,[11],31.3 µM (active)
same,IC50,[12],> 20 µM (inactive)
same,IC50,[13],13.8 µM (inactive)
same,IC50,[14],23.5 µM (active)
CC1(O)C(=O)C=C2C=C(c3ccc(C#N)cc3)OC=C2C1=O (stereo unspecified),IC50,[15],> 49.8 µM (not active)
CC(C)COc1ccc(-c2nn(-c3ccccc3)cc2C(=O)Nc2nccs2)cc1,EC50,[16],1.04 µM (active)
same,EC50,[17],> 150 µM (not active)
same,EC50,[18],2.21 µM (active)
same,EC50,[19],48.3 µM (active)
same,EC50,[20],> 150 µM (not active)
same,EC50,[21],> 30 µM (not active)
